{"source": "patent US7893199B2", "about": "“Peptides having neutrophil-stimulating activity” (National University Corporation Gunma University, priority 2006, dated 2011)", "test_system": "HL-60 cells differentiated into the neutrophil-like cells", "test": "β-hexosaminidase-secreting activity of neutrophil-like differentiated HL-60 cells", "format": "cell-based, human", "conditions": "neutrophil-like differentiated HL-60 cells; for Activity (β-hexosaminidase-secreting activity class): lowest concentration class at which secretion was confirmed; for EC50: Table 1, read-out: EC50 (μM), β-hexosaminidase-secreting activity", "from_the_text": "(1) Culture of Cell and Differentiation Into Neutrophil-like Cell\nIn this time, the cells were subcultured at a cell density of 1.0×10^5 cells/ml to 1.5×10^6 cells/ml, the number of cells was counted using a microscope, and the state of the cells was also confirmed.\nThe HL-60 cells were differentiated into neutrophil-like cells by setting the cell density in the flask to about 1.0×10^6 cells/ml, adding dibutylyl-cAMP (db-cAMP) as a differentiation-inducing agent so as to have a final concentration of 500 μM, and incubating the cells in the presence of CO2 at 37° C. for 3 days.\n(2) Stimulation of Cell and Measurement of β-Hexosaminidase-secreting Activity\nThe cells were collected by centrifuging the suspension of the differentiated HL-60 cells (1,000 rpm, 5 minutes, 4° C.). After that, the following operation was repeated three times to wash the cells: Hepes buffered Hank's solution (HBHS) containing ice-cooled 0.1% BSA (1.2 mM CaCl2.2H2O, 5.4 mM KCl, 0.44 mM KH2PO4, 0.49 mM MgCl2.6H2O, 0.41 mM MgSO4.7H2O, 136.9 mM NaCl, 0.34 mM Na2HPO4, 10 mM Hepes, 4.2 mM NaHCO3, 5.5 mM D-glucose, pH 7.4) was added to the cells; the mixture was suspended by inversion; and the mixture was centrifuged again (1,000 rpm, 5 minutes, 4° C.). Subsequently, HBHS was added so that the mixture has a cell density of 5.6×10^6 cells/ml and suspended. Then, DNase I and cytochalasin B were each added so as to have a final concentration of 5 μg/ml, and the cell suspension was dispensed in an amount of 90 μl (5×10^5 cells) on ice. […] After the cell stimulation for 10 minutes, 100 μl of an ice-cooled stop solution (25 mM Tris, 123 mM NaCl, 2.7 mM KCl, pH 7.4) were added, and immediately, the mixture was centrifuged (5,000 rpm, 1 minute, 4° C.). 200 μl of the obtained supernatant were transferred to a new tube.\nThe amount of β-hexosaminidase released in the supernatant of the reaction solution was measured by an enzyme reaction using p-nitrophenyl-N-acetyl-μ-D-glucosaminide as a substrate (Non-patent Document 12). That is, the supernatant of the reaction solution was dispensed in an amount of 90 μl to a 96-well plate. 60 μl of a substrate solution (10 mM p-nitrophenyl-N-acetyl-μ-D-glucosaminide, 40 mM citrate, 70 mM Na2HPO4, pH 4.5) were added to each well, followed by incubation at 37° C. for 1 hour. After the reaction, 100 μl of a stop solution (0.4 M glycine, pH 10.7) were added to each well and a color of the released p-nitrophenol was developed. The color development was measured with a plate reader at adsorption at 405 nm (reference: 492 nm). The all amount of β-hexosaminidase contained in the cells was quantified by treating the cells with Triton X-100 having a final concentration of 0.05%. In addition, the amount of β-hexosaminidase secreted by stimulation of 10 μM fMLP was also measured, and the ratio of the secretion amount by stimulation with each peptide to the above sectretion amount by stimulation with fMLP.", "note": "Where a SMILES comes first, the peptide text is derived from it. Where no end group is shown, it is not given here."}
{"molecule": "002 (MASRLLRGAGTLAAQALRARGPSGAAAMR) [compound 002]", "values": [{"measurement": "Activity (β-hexosaminidase-secreting activity class)", "result": "▴ (a peptide in which the β-hexosaminidase-secreting activity was confirmed at a concentration of 100 μM or less)"}]}
{"molecule": "003 (MASRLLRGAGTLAAQALRAR) [compound 003]", "values": [{"measurement": "Activity (β-hexosaminidase-secreting activity class)", "result": "▴ (a peptide in which the β-hexosaminidase-secreting activity was confirmed at a concentration of 100 μM or less)"}]}
{"molecule": "005 (MASRLLRGAGTLAAQALR) [compound 005]", "values": [{"measurement": "Activity (β-hexosaminidase-secreting activity class)", "result": "▴ (a peptide in which the β-hexosaminidase-secreting activity was confirmed at a concentration of 100 μM or less)"}]}
{"molecule": "006 (MGGLWRPGWRCVPFCGWRWI) [compound 006]", "values": [{"measurement": "Activity (β-hexosaminidase-secreting activity class)", "result": "▴ x"}]}
{"molecule": "008 (MLGQSIRRFTTSVVR) [compound 008]", "values": [{"measurement": "EC50", "result": "> 100", "unit": "µM"}, {"measurement": "Activity (β-hexosaminidase-secreting activity class)", "result": "▴ (a peptide in which the β-hexosaminidase-secreting activity was confirmed at a concentration of 100 μM or less)"}]}
{"molecule": "010 (MLGQSIRRFTTSVVRR) [compound 010]", "values": [{"measurement": "EC50", "result": "> 40", "unit": "µM"}, {"measurement": "Activity (β-hexosaminidase-secreting activity class)", "result": "● (a peptide in which the β-hexosaminidase-secreting activity was confirmed at a concentration of 10 μM or less)"}]}
{"molecule": "013 (MALPLRPLTRGL) [compound 013]", "values": [{"measurement": "EC50", "result": "> 30", "unit": "µM"}, {"measurement": "Activity (β-hexosaminidase-secreting activity class)", "result": "● (a peptide in which the β-hexosaminidase-secreting activity was confirmed at a concentration of 10 μM or less)"}]}
{"molecule": "016 (MPLLRGRCPARRHYRRLALLGLQPAPRFA) [compound 016]", "values": [{"measurement": "EC50", "result": "> 20", "unit": "µM"}, {"measurement": "Activity (β-hexosaminidase-secreting activity class)", "result": "● (a peptide in which the β-hexosaminidase-secreting activity was confirmed at a concentration of 10 μM or less)"}]}
{"molecule": "017 (FTTFLTPAAYVLGNLKQFRRN) [compound 017]", "values": [{"measurement": "EC50", "result": "> 40", "unit": "µM"}, {"measurement": "Activity (β-hexosaminidase-secreting activity class)", "result": "▴ (a peptide in which the β-hexosaminidase-secreting activity was confirmed at a concentration of 100 μM or less)"}]}
{"molecule": "021 (MAIQFRSLFPLALPGMLALLGWWWFFSRK) [compound 021]", "values": [{"measurement": "Activity (β-hexosaminidase-secreting activity class)", "result": "● (a peptide in which the β-hexosaminidase-secreting activity was confirmed at a concentration of 10 μM or less)"}]}
{"molecule": "027 (MQRAVSVVARLGFRLQAFPPALCRPLSC) [compound 027]", "values": [{"measurement": "EC50", "result": "> 30", "unit": "µM"}, {"measurement": "Activity (β-hexosaminidase-secreting activity class)", "result": "● (a peptide in which the β-hexosaminidase-secreting activity was confirmed at a concentration of 10 μM or less)"}]}
{"molecule": "029 (MAAPRAGRGAGWSLRAWRALGGIRWGRRPRL) [compound 029]", "values": [{"measurement": "EC50", "result": "> 50", "unit": "µM"}, {"measurement": "Activity (β-hexosaminidase-secreting activity class)", "result": "● (a peptide in which the β-hexosaminidase-secreting activity was confirmed at a concentration of 10 μM or less)"}]}
{"molecule": "039 (MAASVVCRAATAGAQVLLRARRSPALLRTPALRS) [compound 039]", "values": [{"measurement": "EC50", "result": "> 40", "unit": "µM"}, {"measurement": "Activity (β-hexosaminidase-secreting activity class)", "result": "● (a peptide in which the β-hexosaminidase-secreting activity was confirmed at a concentration of 10 μM or less)"}]}
{"molecule": "044 (MAAPAVSGLSRQVRCFSTSVVRPF) [compound 044]", "values": [{"measurement": "EC50", "result": "> 30", "unit": "µM"}, {"measurement": "Activity (β-hexosaminidase-secreting activity class)", "result": "● (a peptide in which the β-hexosaminidase-secreting activity was confirmed at a concentration of 10 μM or less)"}]}
{"molecule": "045 (MAAALLARASGPARRALCPRAWRQ) [compound 045]", "values": [{"measurement": "EC50", "result": "> 30", "unit": "µM"}, {"measurement": "Activity (β-hexosaminidase-secreting activity class)", "result": "● (a peptide in which the β-hexosaminidase-secreting activity was confirmed at a concentration of 10 μM or less)"}]}
{"molecule": "046 (MLPAALLRRPGLGRLVRHARAY) [compound 046]", "values": [{"measurement": "EC50", "result": "> 5", "unit": "µM"}, {"measurement": "Activity (β-hexosaminidase-secreting activity class)", "result": "∘ (a peptide in which the β-hexosaminidase-secreting activity was confirmed at a concentration of 1 μM or less)"}]}
{"molecule": "047 (MLSALARPVSAALRRSFSTSAQNN) [compound 047]", "values": [{"measurement": "EC50", "result": "> 20", "unit": "µM"}, {"measurement": "Activity (β-hexosaminidase-secreting activity class)", "result": "● (a peptide in which the β-hexosaminidase-secreting activity was confirmed at a concentration of 10 μM or less)"}]}
{"molecule": "CC[C@H](C)[C@H](NC(=O)[C@H](CS)NC(=O)[C@H](CC(C)C)NC(=O)[C@H](CCC(N)=O)NC(=O)[C@@H]1CCCN1C(=O)[C@H](CO)NC(=O)[C@H](Cc1ccccc1)NC(=O)[C@H](Cc1c[nH]cn1)NC(=O)[C@H](C)NC(=O)[C@H](CCCNC(=N)N)NC(=O)[C@H](CC(C)C)NC(=O)[C@H](CS)NC(=O)[C@H](Cc1c[nH]cn1)NC(=O)[C@H](CCCNC(=N)N)NC(=O)CNC(=O)[C@@H](NC(=O)[C@H](Cc1c[nH]cn1)NC(=O)[C@H](CCCNC(=N)N)NC(=O)[C@H](CC(C)C)NC(=O)[C@H](CC(C)C)NC(=O)[C@H](CC(C)C)NC(=O)[C@H](C)NC(=O)[C@H](C)NC(=O)[C@@H](N)CCSC)C(C)C)C(=O)N[C@@H](CCCNC(=N)N)C(=O)N[C@@H](CC(N)=O)C(=O)N[C@@H](C)C(=O)N[C@H](C(=O)N1CCC[C@H]1C(=O)N[C@@H](CC(C)C)C(=O)O)C(C)C", "note": "[compound 023] (H-MAALLLRHVGRHCLRAHFSPQLCIRNAVPL-OH; N-terminus and C-terminus assumed)", "values": [{"measurement": "EC50", "result": 0.3, "unit": "µM"}, {"measurement": "Activity (β-hexosaminidase-secreting activity class)", "result": "⊚ (a peptide in which the β-hexosaminidase-secreting activity was confirmed at a concentration of 300 nM or less)"}]}
{"molecule": "CC[C@H](C)[C@H](NC(=O)[C@H](CC(C)C)NC(=O)[C@@H](N)CCSC)C(=O)N1CCC[C@H]1C(=O)N[C@@H](Cc1ccccc1)C(=O)N[C@@H](CO)C(=O)N[C@@H](CCSC)C(=O)N[C@@H](CCCCN)C(=O)N[C@@H](CC(N)=O)C(=O)N[C@@H](CS)C(=O)N[C@@H](Cc1ccccc1)C(=O)N[C@@H](CCC(N)=O)C(=O)N[C@@H](CC(C)C)C(=O)N[C@@H](CC(C)C)C(=O)N[C@@H](CS)C(=O)N[C@@H](CC(N)=O)C(=O)N[C@@H](CS)C(=O)N[C@@H](CCC(N)=O)C(=O)N[C@H](C(=O)N1CCC[C@H]1C(=O)N[C@@H](C)C(=O)N[C@@H](C)C(=O)NCC(=O)N[C@@H](Cc1ccccc1)C(=O)N[C@@H](CCCCN)C(=O)O)C(C)C", "note": "[compound 030] (H-MLIPFSMKNCFQLLCNCQVPAAGFK-OH; N-terminus and C-terminus assumed)", "values": [{"measurement": "EC50", "result": 1, "unit": "µM"}, {"measurement": "Activity (β-hexosaminidase-secreting activity class)", "result": "∘ (a peptide in which the β-hexosaminidase-secreting activity was confirmed at a concentration of 1 μM or less)"}]}
{"molecule": "MAAAALGQIWARKLLSVPWLLCGPRRY [compound 022]", "values": [{"measurement": "EC50", "result": 0.8, "unit": "µM"}, {"measurement": "Activity (β-hexosaminidase-secreting activity class)", "result": "⊚ (a peptide in which the β-hexosaminidase-secreting activity was confirmed at a concentration of 300 nM or less)"}]}
{"molecule": "MAAVVALSLRRRLPATTLGGACLQASRG [compound 026]", "values": [{"measurement": "EC50", "result": 10, "unit": "µM"}, {"measurement": "Activity (β-hexosaminidase-secreting activity class)", "result": "● (a peptide in which the β-hexosaminidase-secreting activity was confirmed at a concentration of 10 μM or less)"}]}
{"molecule": "MALLTAAARLLGTKNASCLVLAARHAS [compound 050]", "values": [{"measurement": "EC50", "result": 7, "unit": "µM"}, {"measurement": "Activity (β-hexosaminidase-secreting activity class)", "result": "● (a peptide in which the β-hexosaminidase-secreting activity was confirmed at a concentration of 10 μM or less)"}]}
{"molecule": "MALRAKAEVCMAVPWLSLQRAQAL [compound 049]", "values": [{"measurement": "EC50", "result": 2, "unit": "µM"}, {"measurement": "Activity (β-hexosaminidase-secreting activity class)", "result": "● (a peptide in which the β-hexosaminidase-secreting activity was confirmed at a concentration of 10 μM or less)"}]}
